Experimental data as given in US12509437B2, “Substituted thiophene carboxamides and derivatives thereof as microbicides” (Bayer Aktiengesellschaft, priority 2019, dated 2025).

Tests used:
[1] = LogP by HPLC on reversed phase columns (EEC directive 79/831 Annex V.A8); type: physicochemical; conditions: reversed phase HPLC columns; method [a]
In short: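 LogP derived from retention time, interpolated linearly between bracketing alkan-2-one standards (3 to 16 carbons). Where several values exist for one method, all are listed with "+"; UV spectra 200–400 nm at peak maxima gave lambda-max.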

[2] = test system: salicylate responsive promoter sequence of the PR1 (pathogenesis-related protein I) gene (AT2G14610); experiment: Induction of defense gene expression in Arabidopsis thaliana (PR1 promoter-GFP reporter plants); type: in vivo; conditions: 72 h, 3rd day after spraying, mock treated leaves set as 1.00, read-out: relative fluorescence value
In short: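 Transgenic A. thaliana carrying GFP under the salicylate-responsive PR1 promoter, grown five days, then sprayed with compounds. Whole-plant fluorescence imaged and quantified on day 3 post-spray, expressed relative to mock-treated leaf background set at 1.00.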

[3] = test system: Colletotrichum lindemuthianum; experiment: In vivo preventive test on Colletotrichum lindemuthianum (Anthracnose on bean); conditions: Colletotrichum lindemuthianum, 144 h, sprayed 72 hours before inoculation, evaluated 6 days after inoculation, read-out: efficacy; for pest or weed control at 500 ppm: 500 ppm of active ingredient; for pest or weed control at 125 ppm: 125 ppm of active ingredient
In short: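 Young bean plants were sprayed with compound in acetone/DMSO/Tween diluted in water, then inoculated 72 h later with C. lindemuthianum spores. Incubation was 24 h at 20 °C/100% RH, then 5 days at 20 °C/90% RH. Efficacy scored 6 days post-inoculation: 0% equals solvent-treated control, 100% means no disease.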

[4] = test system: Peronospora parasitica; experiment: In vivo preventive test on Peronospora parasitica (Crucifer downy mildew) on cabbage; conditions: Hyaloperonospora parasitica, 120 h, sprayed 72 hours before inoculation, evaluated 5 days after inoculation, read-out: efficacy; for pest or weed control at 31 ppm: 31 ppm of active ingredient; for pest or weed control at 125 ppm: 125 ppm of active ingredient; for pest or weed control at 500 ppm: 500 ppm of active ingredient
In short: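 Preventive protocol: spore inoculation followed compound spraying by 72 h, with 5 days' incubation at 20 °C and 100% relative humidity. Disease was rated 5 days after inoculation against solvent-only plants (0% = control level, 100% = disease-free).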

[5] = test system: Uromyces appendiculatus; experiment: In vivo preventive test on Uromyces appendiculatus (bean rust); conditions: 240 h, sprayed 72 hours before inoculation, evaluated 10 days after inoculation, read-out: efficacy; for pest or weed control at 31 ppm: 31 ppm of active ingredient; for pest or weed control at 125 ppm: 125 ppm of active ingredient; for pest or weed control at 500 ppm: 500 ppm of active ingredient
In short: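 Young bean plants sprayed with compound in acetone/DMSO/Tween diluted in water, then inoculated 72 h later with spore suspension. Incubated 24 h at 20° C., 100% RH, then 9 days at 20° C., 70-80% RH. Efficacy scored 10 days post-inoculation, 0% = untreated-control level, 100% = no disease.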

[6] = test system: Pseudomonas syringae pv. tomato; experiment: In vivo preventive test on Pseudomonas syringae pv. tomato (bacterial speck on tomato); conditions: sprayed 72 hours before inoculation, evaluated 5 or 6 days after inoculation, read-out: efficacy; for pest or weed control at 125 ppm: 125 ppm of active ingredient; for pest or weed control at 500 ppm: 500 ppm of active ingredient
Description: The tested active ingredients were prepared by homogenization in a mixture of acetone/Dimethyl sulfoxide/Tween®, and then diluted with water to obtain the desired active material concentration.
The young plants of tomato were treated by spraying the active ingredient prepared as described above. Control plants were treated only with an aqueous solution of acetone/Dimethyl sulfoxide/Tween®.
After 72 hours, the plants were contaminated by spraying the leaves with an aqueous bacteria suspension of Pseudomonas syringae pv. tomato. The contaminated tomato plants were incubated for 4 days in saturated atmosphere at 22° C. day/20° C. night−70% HR and then for 1 or 2 days at 22° C. day/20° C. night at 70-80% relative humidity.
The test was evaluated 5 or 6 days after the inoculation. 0% means an efficacy which corresponds to that of the control plants while an efficacy of 100% means that no disease was observed.

[7] = test system: Alternaria alternata; experiment: Alternaria alternata in vitro cell test; type: cell-based; conditions: 120 h, 5 days incubation, read-out: efficacy (inhibition of fungal growth; no direct activity); for inhibition at 5 ppm: 5 ppm of active ingredient; for inhibition at 20 ppm: 20 ppm of active ingredient
In short: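 A. alternata spores in glucose/peptone/yeast-extract liquid medium were exposed to DMSO-solubilized compound (final DMSO ≤1%). After 5 days incubation, mycelium growth read spectrometrically; inhibition derived from absorbance relative to fungicide-free control wells.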

[8] = test system: Colletotrichum lindemuthianum; experiment: Colletotrichum lindemuthianum in vitro cell test; type: cell-based; conditions: 144 h, 6 days incubation, read-out: efficacy (inhibition of fungal growth; no direct activity); for inhibition at 5 ppm: 5 ppm of active ingredient
In short: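 Inhibition of spore germination and mycelial growth in liquid culture, read spectrometrically after 6 days incubation. Compounds added from DMSO (final ≤1%) to spores in glucose/peptone/yeast-extract medium; absorbance compared with untreated controls.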

[9] = test system: Xanthomonas campestris pv. campestris; experiment: Xanthomonas campestris pv. campestris in vitro cell test; type: cell-based; conditions: 24 h of incubation, read-out: efficacy (inhibition of bacteria growth; no direct activity); for inhibition at 5 ppm: 5 ppm of active ingredient; for inhibition at 20 ppm: 20 ppm of active ingredient
In short: (§1)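 Bacteria from liquid pre-culture diluted to set OD in LB broth and exposed to compounds dissolved in DMSO (final ≤1%). After 24 h, growth read by absorbance; inhibition derived relative to compound-free control wells.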

[10] = test system: Pseudomonas syringae pv. tomato; experiment: Pseudomonas syringae pv. tomato in vitro cell test; type: cell-based; conditions: 20 ppm of active ingredient, 24 h of incubation, read-out: efficacy (inhibition of bacteria growth; no direct activity)
In short: as §1

[11] = test system: Xanthomonas campestris pv. campestris; experiment: In vivo preventive test on Xanthomonas campestris pv. campestris (black rot on cabbage); conditions: Xanthomonas campestris, sprayed 72 hours before inoculation, evaluated 8 or 10 days after inoculation, read-out: efficacy; for pest or weed control at 31 ppm: 31 ppm of active ingredient; for pest or weed control at 500 ppm: 500 ppm of active ingredient
In short: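 Young cabbage plants sprayed preventively with compound formulated in acetone/DMSO/Tween and diluted in water, then inoculated 72 h later with a bacterial spray. Kept at 27° C, 95% relative humidity; disease scored after 8 or 10 days as % efficacy versus solvent-treated controls (0% = control, 100% = no disease).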

chromatographic logP [1]	Structure (SMILES)	fold induction at 300 ppm [2]	pest or weed control at 500 ppm [3] [%]	pest or weed control at 31 ppm [4] [%]	pest or weed control at 125 ppm [4] [%]	pest or weed control at 500 ppm [4] [%]	pest or weed control at 31 ppm [5] [%]	pest or weed control at 125 ppm [5] [%]	pest or weed control at 500 ppm [5] [%]	pest or weed control at 125 ppm [6] [%]	inhibition at 5 ppm [7] [%]	inhibition at 20 ppm [7] [%]	inhibition at 5 ppm [8] [%]	inhibition at 5 ppm [9] [%]	inhibition at 20 ppm [9] [%]	inhibition at 20 ppm [10] [%]	pest or weed control at 125 ppm [3] [%]	pest or weed control at 500 ppm [6] [%]	fold induction at 75 ppm [2]	other results
3.76	CCOC(=O)C(NC(=O)c1sc(Cl)c(Cl)c1C)C1CC1 (centres unmarked) [I.083]	> 2	90 to 100	90 to 100	90 to 100	90 to 100	90 to 100	90 to 100	90 to 100	70 to 79	≤ 30	≤ 30	≤ 30	≤ 30	≤ 30	≤ 30				
3.81	COC(=O)C(NC(=O)c1sc(Cl)c(Cl)c1C)c1cccs1 (centres unmarked) [I.165]	> 2		90 to 100	90 to 100		90 to 100	90 to 100		80 to 89	≤ 30	≤ 30	≤ 30	≤ 30	≤ 30	≤ 30	80 to 89			pest or weed control at 31 ppm ([3]; 31 ppm of active ingredient): 80 to 89%
1.68	COC(=O)[C@H](CCCNC(=N)N)NC(=O)c1sc(Cl)c(Cl)c1C [I.079]	> 2		80 to 89	90 to 100	90 to 100			80 to 89		≤ 30		≤ 30	≤ 30	≤ 30	≤ 30		70 to 79		pest or weed control at 31 ppm [11]: 70 to 79%; inhibition at 20 ppm ([8]; 20 ppm of active ingredient): ≤ 30%
3.16	COC(=O)C(C)(C)NC(=O)c1sc(Cl)c(Cl)c1C [I.176]	> 2		70 to 79	90 to 100		90 to 100	90 to 100		70 to 79	≤ 30	≤ 30	≤ 30	≤ 30	≤ 30	≤ 30			> 2	
3.33	COC(=O)C(CC(F)F)NC(=O)c1sc(Br)c(Br)c1C (centres unmarked) [I.108]	> 2	90 to 100	70 to 79	70 to 79	90 to 100		90 to 100	90 to 100		≤ 30	≤ 30		≤ 30	≤ 30	≤ 30	80 to 89	70 to 79	> 2	
2.63	Cc1c(C(=O)NC2(C(=O)O)CCC2)sc(Br)c1Br [I.137]	> 2	90 to 100	70 to 79	90 to 100	90 to 100		90 to 100	90 to 100									70 to 79	> 2	pest or weed control at 125 ppm ([11]; 125 ppm of active ingredient): 90 to 100%; pest or weed control at 500 ppm [11]: 90 to 100%
	CCOC(=O)C1(NC(=O)c2cc(Br)c(Br)s2)CC1 [CMP2, reference compound]		0		< 30		< 40		< 30								0	< 40		pest or weed control at 31 ppm [11]: 0%; pest or weed control at 500 ppm [11]: 0%
